Reference: article PMC8330190 (Signal Transduction and Targeted Therapy, 2021)

Tested on: SARS-CoV-2 HR1 target mimic peptide HR1P
Format: binding

Compound: CC[C@H](C)[C@H](NC(=O)[C@H](C)NC(=O)[C@H](CCC(=O)O)NC(=O)[C@H](CCC(N)=O)NC(=O)[C@H](CC(C)C)NC(=O)[C@H](CCCNC(=N)N)NC(=O)[C@H](CC(N)=O)NC(=O)[C@H](CCSC)NC(=O)[C@H](CCC(=O)O)NC(=O)[C@H](CC(=O)O)NC(=O)[C@H](CCC(N)=O)NC(=O)[C@H](CC(C)C)NC(=O)[C@H](CC(=O)O)NC(=O)[C@H](CC(C)C)NC(=O)[C@H](Cc1ccccc1)NC(=O)[C@@H](NC(=O)[C@@H](NC(=O)[C@H](CC(N)=O)NC(=O)[C@@H](NC(=O)[C@H](Cc1ccc(O)cc1)NC(=O)[C@H](CC(=O)O)NC(=O)[C@H](CC(C)C)NC(=O)[C@H](CO)NC(C)=O)[C@@H](C)CC)C(C)C)[C@@H](C)O)C(=O)N[C@@H](CCCCN)C(=O)N[C@H](C(=O)N[C@@H](CC(C)C)C(=O)N[C@@H](CC(N)=O)C(=O)N[C@@H](CCC(N)=O)C(=O)N[C@@H](CO)C(=O)N[C@@H](Cc1ccc(O)cc1)C(=O)N[C@H](C(=O)N[C@@H](CC(N)=O)C(=O)N[C@@H](CC(C)C)C(=O)N[C@@H](CCCCN)C(=O)N[C@@H](CC(=O)O)C(=O)N[C@H](C(=O)NCCOCCOCCOCCOCCOCCOCCOCCOCCC(=O)N[C@@H](CCCCNC(=O)CCC(=O)O[C@H]1CC[C@@]2(C)C(=CC[C@H]3[C@@H]4CC[C@H]([C@H](C)CCCC(C)C)[C@@]4(C)CC[C@@H]32)C1)C(N)=O)[C@@H](C)CC)[C@@H](C)CC)C(C)C [OC43-LP]
- Tm of complex with HR1P (binding stability): 63 °C

Compound: CC[C@H](C)[C@H](NC(=O)[C@H](Cc1ccc(O)cc1)NC(=O)[C@H](CO)NC(=O)[C@H](CCC(=O)O)NC(=O)[C@H](CC(N)=O)NC(=O)[C@H](CC(C)C)NC(=O)[C@H](C)NC(=O)[C@H](CCCCN)NC(=O)[C@@H](NC(=O)[C@@H](NC(=O)[C@H](CCC(N)=O)NC(=O)[C@H](CCC(N)=O)NC(=O)[C@H](CC(C)C)NC(=O)[C@H](CO)NC(=O)[C@H](CC(C)C)NC(=O)[C@H](CCSC)NC(=O)[C@H](CCC(=O)O)NC(=O)[C@H](Cc1ccc(O)cc1)NC(=O)[C@@H](NC(=O)[C@H](CC(C)C)NC(=O)[C@H](CC(=O)O)NC(=O)[C@H](CC(C)C)NC(=O)[C@H](CC(C)C)NC(=O)[C@@H](NC(=O)[C@@H](NC(=O)[C@H](CC(N)=O)NC(=O)[C@@H](NC(=O)[C@H](CCC(N)=O)NC(=O)[C@@H](NC(=O)[C@H](CC(C)C)NC(=O)[C@H](CO)NC(C)=O)[C@@H](C)O)[C@@H](C)CC)[C@@H](C)O)[C@@H](C)O)[C@@H](C)O)C(C)C)C(C)C)C(=O)N[C@@H](CC(=O)O)C(=O)N[C@@H](CC(C)C)C(=O)N[C@@H](CCCCN)C(=O)N[C@@H](CCC(=O)O)C(=O)N[C@@H](CC(C)C)C(=O)NCCOCCOCCOCCOCCOCCOCCOCCOCCC(=O)N[C@@H](CCCCNC(=O)CCC(=O)O[C@H]1CC[C@@]2(C)C(=CC[C@H]3[C@@H]4CC[C@H]([C@H](C)CCCC(C)C)[C@@]4(C)CC[C@@H]32)C1)C(N)=O [MERS-LP]
- Tm of complex with HR1P (binding stability): 47 °C
